From patent US9828385B2, “Spiro-oxazolones” (Hoffmann-La Roche Inc., priority 2014, dated 2017)

molecular target: T1, human V1a receptor (Homo sapiens, UniProt P37288); test: human V1a receptor binding studies (3H-Vasopressin, SPA beads); settings: membranes of HEK293 cells transiently transfected with human V1a receptor, Ki by Cheng-Prussoff from IC50, read-out: pKi hV1a (converted)
T1 construct: expressed in transfected cells; host or cells: HEK293 cells, transiently transfected; cell membranes
Outline: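 Membranes from transiently transfected HEK293 cells expressing cloned human V1a receptor, on yttrium silicate SPA beads, competed against 4 nM 3H-vasopressin (added stock concentration) in Tris buffer with NaCl, KCl, CaCl2, MgCl2 for 1 h at room temperature. Nonspecific binding with cold vasopressin; IC50 by nonlinear fit, Ki via Cheng-Prusoff.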

T1 sequence (P37288 whole entry): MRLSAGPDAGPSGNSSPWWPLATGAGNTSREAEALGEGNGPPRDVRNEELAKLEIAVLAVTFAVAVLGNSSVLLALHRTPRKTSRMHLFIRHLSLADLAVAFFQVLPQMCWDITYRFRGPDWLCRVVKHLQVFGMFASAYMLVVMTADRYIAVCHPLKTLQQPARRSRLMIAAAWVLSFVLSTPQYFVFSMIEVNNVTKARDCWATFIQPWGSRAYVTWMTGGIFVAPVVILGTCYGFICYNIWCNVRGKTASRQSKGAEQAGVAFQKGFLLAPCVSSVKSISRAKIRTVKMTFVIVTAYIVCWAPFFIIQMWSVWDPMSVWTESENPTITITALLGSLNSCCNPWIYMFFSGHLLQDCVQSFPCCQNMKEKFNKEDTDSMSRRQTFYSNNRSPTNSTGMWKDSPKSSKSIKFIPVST

| Structure (SMILES) | Ki |
| --- | --- |
| O=C1N=C(N2CCC3(CC2)OCc2ccccc23)O[C@@H]1Cc1ccccc1 [Example 18, (+)-(5R)-5-Benzyl-2-(1′H,3H-spiro[2-benzofuran-1,4′-piperidin]-1′-yl)-1,3-oxazol-4(5H)-one] | 1.58 nM |
| CC1(CC2CCCO2)OC(N2CCC3(CC2)OCc2ccccc23)=NC1=O (stereo not shown) [Example 101, 5-Methyl-2-(1′H,3H-spiro[2-benzofuran-1,4′-piperidin]-1′-yl)-5-(tetrahydrofuran-2-ylmethyl)-1,3-oxazol-4(5H)-one] | 200 nM |
| C=CCC1(CC(=C)C(F)(F)F)OC(N2CCC3(CC2)OCc2ccccc23)=NC1=O (stereo not shown) [Example 60, 5-(Prop-2-en-1-yl)-2-(1′H,3H-spiro[2-benzofuran-1,4′-piperidin]-1′-yl)-5-[2-(trifluoromethyl)prop-2-en-1-yl]-1,3-oxazol-4(5H)-one] | 25.1 nM |
| CC1(Cc2ccccc2)OC(N2CCC3(CC2)OC(=O)c2ccccc23)=NC1=O (single isomer, unassigned; enantiomer b) [Example 73, 1′-[5-Benzyl-5-methyl-4-oxo-4,5-dihydro-1,3-oxazol-2-yl]-3H-spiro[2-benzofuran-1,4′-piperidin]-3-one enantiomer B] | 251 nM |
| CCCCC1OC(N2CCC3(CC2)OC(=O)c2ccccc23)=NC1=O (single isomer, unassigned; enantiomer b) [Example 6, 1′-[5-Butyl-4-oxo-4,5-dihydro-1,3-oxazol-2-yl]-3H-spiro[2-benzofuran-1,4′-piperidin]-3-one enantiomer B] | 20 nM |
| C#CCC1(CC(=C)C(=O)OCC)OC(N2CCC3(CC2)OCc2ccccc23)=NC1=O (stereo not shown) [Example 62, Ethyl 2-((4-oxo-5-(prop-2-ynyl)-2-(3H-spiro[isobenzofuran-1,4′-piperidine]-1′-yl)-4,5-dihydrooxazol-5-yl)methyl)acrylate] | 631 nM |
| O=C1OC2(CCN(C3=NC(=O)C(CC4CCCC4)O3)CC2)c2ccccc21 (single isomer, unassigned; enantiomer a) [Example 15, 1′-[5-(Cyclopentylmethyl)-4-oxo-4,5-dihydro-1,3-oxazol-2-yl]-3H-spiro[2-benzofuran-1,4′-piperidin]-3-one enantiomer A] | 2.51 nM |
| O=C1N=C(N2CCC3(CC2)OCc2ccccc23)OC1Cc1ccccc1 (stereo not shown) [Example 17, 5-Benzyl-2-(1′H,3H-spiro[2-benzofuran-1,4′-piperidin]-1′-yl)-1,3-oxazol-4(5H)-one] | 3.98 nM |
| O=C1N=C(N2CCC3(CC2)OCc2ccccc23)OC12CC1CCCCCC1C2 (stereo not shown) [Example 140, 2′-(1′H,3H-Spiro[2-benzofuran-1,4′-piperidin]-1′-yl)-3,3a,4,5,6,7,8,8a-octahydro-1H,4′H-spiro[azulene-2,5′-[1,3]oxazol]-4′-one] | 0.631 nM |
| C=CCC1(CC=C)OC(N2CCC3(CC2)OCc2ccccc23)=NC1=O [Example 58, 5,5-Di(prop-2-en-1-yl)-2-(1′H,3H-spiro[2-benzofuran-1,4′-piperidin]-1′-yl)-1,3-oxazol-4(5H)-one] | 50.1 nM |
| O=C1N=C(N2CCC3(CC2)OCc2ccccc23)OC12CCCC2 [Example 112, 2-(3H-Spiro[isobenzofuran-1,4′-piperidine]-1′-yl)-1-oxa-3-azaspiro[4.4]non-2-en-4-one] | 158 nM |
| O=C1N=C(N2CCC3(CC2)OCc2ccccc23)OC1Cc1ccc(Cl)cc1 (stereo not shown) [Example 35, 5-(4-Chlorobenzyl)-2-(1′H,3H-spiro[2-benzofuran-1,4′-piperidin]-1′-yl)-1,3-oxazol-4(5H)-one] | 2 nM |
| O=C1N=C(N2CCC3(CC2)c2ccccc2CS3(=O)=O)OC1Cc1ccccc1 (stereo not shown) [Example 34, 5-Benzyl-2-(2,2-dioxido-1′H,3H-spiro[2-benzothiophene-1,4′-piperidin]-1′-yl)-1,3-oxazol-4(5H)-one] | 10 nM |
